This is an account of results in paper PMC2365111, “Cytotoxicity of Poly(Phenolic)Sulfonates and Their Sodium Salts in L1210 Lymphoid Leukemia Cells” (Metal-Based Drugs, 1998).

One experiment addresses T1, mRNA polymerase (Mus musculus, UniProt P08775).
T1 construct: Messenger-, ribosomal- and transfer-RNA polymerase enzymes were isolated with different concentrations of ammonium sulfate; endogenous in cells; host or cells: L1210 murine lymphoid leukemia cells, ammonium sulfate fraction
Kind of experiment: Messenger-RNA polymerase activity, L1210. The experiment is classed as biochemical. The settings on record: 100 μM, 60 min, N=6. The text has this: CYTOTOXlCITY OF POLY(PHENOLIC)SULFONATES AND THEIR SODIUM SALTS IN L1210 LYMPHOID LEUKEMIA CELLS Fei Wang, Amy E. Warren, Cheryl R. Barnes and Iris H. Hall* Division of Medicinal Chemistry and Natural Products University of North Carolina Chapel Hill, N.C. […] Because ofthese properties it was surmised that these poly(phenolic)sulfonated compounds may have antineoplastic activity. METHODS Source of Compounds Test compounds were supplied by GeneLabs, Inc. [Redwood City, CA [Table 1]. Radioisotopes were obtained from New England Nuclear [Dupont, Boston, MA]. Substrates and co-factors were purchased om Sigma Chemical Co., [St Louis, MO]. Pentosan sulfate and other antineoplastic standards were obtained from Sigma Chemical Co. Tumor lines were obtained from American Type Culture Collection [Rockville, MD]. […] Cell numbers were determined by the trypan blue exclusion technique. Solid tumor cytotoxicity was determined by Leibovitz et al. 's method utilizing crystal violeeOH and read at 562 nm (Molecular Devices). Values for cytotoxicity were expressed as EDs0 g/ml, i.e. the concentration ofthe compound inhibiting 50% ofcell growth. […] Incorporation of 4C- formate (53.0 mCi/mmol) into pyrimidines was determined by the method of Christopherson et al.[13]. […] DNA polymerase Ot activity was determined in cytoplasmic extracts isolated by Eichler et aL's method. […] Messenger-, ribosomal- and transfer-RNA polymerase enzymes were isolated with different concentrations of ammonium sulfate; individual RNA polymerase activities were determined using 3H -UTP 16,17]. Ribonucleoside reductase activity was measured using 4C -CDP with dithioerythritol. […]

The target of another experiment is T2, rRNA polymerase (Mus musculus, UniProt O35134).
T2 construct: Messenger-, ribosomal- and transfer-RNA polymerase enzymes were isolated with different concentrations of ammonium sulfate; endogenous in cells; host or cells: L1210 murine lymphoid leukemia cells, ammonium sulfate fraction
The experiment is described as follows: Ribosomal-RNA polymerase activity, L1210. Format: biochemical. The settings on record: 60 min, N=6. An excerpt: (§1) CYTOTOXlCITY OF POLY(PHENOLIC)SULFONATES AND THEIR SODIUM SALTS IN L1210 LYMPHOID LEUKEMIA CELLS Fei Wang, Amy E. Warren, Cheryl R. Barnes and Iris H. Hall* Division of Medicinal Chemistry and Natural Products University of North Carolina Chapel Hill, N.C. […] Because ofthese properties it was surmised that these poly(phenolic)sulfonated compounds may have antineoplastic activity. METHODS Source of Compounds Test compounds were supplied by GeneLabs, Inc. [Redwood City, CA [Table 1]. Radioisotopes were obtained from New England Nuclear [Dupont, Boston, MA]. Substrates and co-factors were purchased om Sigma Chemical Co., [St Louis, MO]. Pentosan sulfate and other antineoplastic standards were obtained from Sigma Chemical Co. Tumor lines were obtained from American Type Culture Collection [Rockville, MD]. 147 Vol. 5, No. 3, 1998 Cytotoxicity ofSodium Poly(Phenolic)Sulfonates in L1210 Lymphoid Leukemia Cells Table 1 Structures of Poly(phenolic)sulfonate Compounds O2R" n Compound R' R" n MW # G1-2041 H OH 8 1489.46 G1-2029 H OH 6 1117.09 G1-2030 H OH 4 744.73 GI-2021 CH3 ONa 8 1777.5 G1-2057 CH3 ONa 4 888.75 GI-2158 CH3 ONa 6 1333.13 GI-2063 OCH3 ONa 8 2001.65 G1-2042 OAc ONa 8 2017.73 Cytotoxicity Poly(phenolic)sulfonates were tested for cytotoxic activity by homogenizing drug in 0.05% Tween 80/H20 to give a mg/ml stock concentration. These solutions were sterilized by passing them through an acrodisc ([…]). The following cell lines were maintained by literature techniques: murine L1210 lymphoid leukemia, P-388 lymphocytic leukemia, rat UMR 106 osteosarcoma, human Tmolt3 acute lymphoblastic T cell leukemia, HUT-8 lymphoma, HeLa-S suspended cervical carcinoma, HeLa solid cervical carcinoma, KB epidermoid nasopharynx, A431 epidermoid carcinoma, colorectal adenocarcinoma SW480, HCT-8 ileocecal adenocarcinoma, lung bronchogenic MB-9812, A549 lung carcinoma, and glioma HS683. Geran et al.'s protocol was used to assess the cytotoxicity of the compounds and standards in each cell line. Cell numbers were determined by the trypan blue exclusion technique. Solid tumor cytotoxicity was determined by Leibovitz et al. 's method utilizing crystal violeeOH and read at 562 nm (Molecular Devices). Values for cytotoxicity were expressed as EDs0 g/ml, i.e. the concentration ofthe compound inhibiting 50% ofcell growth. A value of less than 4 µg/ml was required for significant activity ofgrowth inhibition. Incorporation Studies Incorporation of labeled precursors into 3H-DNA, 3H -RNA and 3H -protein for 10 L1210 cells was obtained. The concentration response for inhibition of DNA, RNA and protein synthesis of the compounds at 25, 50 and 100 l.tM was determined for 60 min incubations. Incorporation of 14C -glycine (53.0 mCi/mmol) into purines was obtained by the method of Cadman et al.[12]. Incorporation of 4C- formate (53.0 mCi/mmol) into pyrimidines was determined by the method of Christopherson et al.[13]. Enzyme Assays Inhibition of various enzyme activities was performed by first preparing the appropriate L1210 cell homogenates or subcellular fractions, then adding the drug to be tested during the enzyme assay. For the concentration response studies, inhibition of enzyme activity was determined at 25, 50 and 100 l.tM of compounds G1-2021, G1-2029, GI-2041 and G1-2063 after 60 min incubations. DNA polymerase Ot activity was determined in cytoplasmic extracts isolated by Eichler et aL's method. The DNA polymerase assay was described by Sedwick et al.[15] using 3H-TTP. Messenger-, ribosomal- and transfer-RNA polymerase enzymes were isolated with different concentrations of ammonium sulfate; individual RNA polymerase activities were determined using 3H -UTP 16,17]. Ribonucleoside reductase activity was measured using 4C -CDP with dithioerythritol. The deoxyribonucleotides 4C -dCDP were separated from the ribonucleotides by TLC on PEI plates. […]

Another experiment concerns the target T3, Dihydrofolate reductase (Mus musculus, UniProt P00375).
T3 construct: preparing the appropriate L1210 cell homogenates or subcellular fractions; endogenous in cells; host or cells: L1210 murine lymphoid leukemia cells, homogenate or subcellular fraction
T3 sequence (P00375 1-187): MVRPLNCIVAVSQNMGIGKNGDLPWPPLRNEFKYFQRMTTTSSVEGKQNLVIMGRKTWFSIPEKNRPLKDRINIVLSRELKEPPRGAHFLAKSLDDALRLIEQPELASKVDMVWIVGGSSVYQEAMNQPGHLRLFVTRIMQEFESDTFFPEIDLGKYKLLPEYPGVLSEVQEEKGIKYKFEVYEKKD
Kind of experiment: Dihydrofolate reductase activity, L1210. The experiment is classed as biochemical. The note with it: 60 min, N=6.
From the text: as §1

The subject of experiment [1] is L1210 de novo purine synthesis. The experiment is described as follows: 14C-glycine incorporation into purines. Format: cell-based, mouse. The note with it: 60 min, N=6.
From the text: as §1

For the next experiment, the target named is T4, PRPP amido transferase (Mus musculus, UniProt Q8CIH9).
T4 construct: preparing the appropriate L1210 cell homogenates or subcellular fractions; endogenous in cells; host or cells: L1210 murine lymphoid leukemia cells, homogenate or subcellular fraction
T4 sequence (Q8CIH9 12-517): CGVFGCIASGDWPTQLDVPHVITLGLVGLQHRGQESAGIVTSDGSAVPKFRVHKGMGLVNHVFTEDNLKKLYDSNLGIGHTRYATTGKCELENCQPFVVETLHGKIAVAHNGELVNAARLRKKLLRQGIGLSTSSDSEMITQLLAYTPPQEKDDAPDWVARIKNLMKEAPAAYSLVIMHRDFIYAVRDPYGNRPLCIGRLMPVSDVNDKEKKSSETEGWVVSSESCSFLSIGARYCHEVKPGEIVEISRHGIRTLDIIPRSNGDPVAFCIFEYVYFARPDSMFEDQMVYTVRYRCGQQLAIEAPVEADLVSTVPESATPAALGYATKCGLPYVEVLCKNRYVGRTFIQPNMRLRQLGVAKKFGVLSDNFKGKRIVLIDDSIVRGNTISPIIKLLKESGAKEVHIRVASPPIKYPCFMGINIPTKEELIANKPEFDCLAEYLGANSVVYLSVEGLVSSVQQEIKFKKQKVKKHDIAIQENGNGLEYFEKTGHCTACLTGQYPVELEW
The experiment is described as follows: PRPP amidotransferase activity, L1210. The settings on record: 50 μM, 60 min, N=6. The experiment is classed as biochemical.
From the text: as §1, with “Enzyme Assays Inhibition of various enzyme activities was performed by first preparing the appropriate L1210 cell homogenates or subcellular fractions, then adding the drug to be tested during the enzyme assay. For the concentration response studies, inhibition of enzyme activity was determined at 25, 50 and 100 l.tM of compounds G1-2021, G1-2029, GI-2041 and G1-2063 after 60 min incubations.” left out, “The DNA polymerase assay was described by Sedwick et al.[15] using 3H-TTP.” left out, “dithioerythritol.” for “dithioerythritol. The deoxyribonucleotides 4C -dCDP were separated from the ribonucleotides by TLC on PEI plates.”

The subject of another experiment is IMP dehydrogenase. Kind of experiment: IMP dehydrogenase activity, L1210. Format: biochemical, mouse. The note with it: 60 min, N=6.
From the text: as §1, with “Enzyme Assays Inhibition of various enzyme activities was performed by first preparing the appropriate L1210 cell homogenates or subcellular fractions, then adding the drug to be tested during the enzyme assay. For the concentration response studies, inhibition of enzyme activity was determined at 25, 50 and 100 l.tM of compounds G1-2021, G1-2029, GI-2041 and G1-2063 after 60 min incubations.” left out, “The DNA polymerase assay was described by Sedwick et al.[15] using 3H-TTP.” left out, “dithioerythritol.” for “dithioerythritol. The deoxyribonucleotides 4C -dCDP were separated from the ribonucleotides by TLC on PEI plates.”

The subject of experiment [2] is L1210 de novo pyrimidine synthesis. Kind of experiment: 14C-formate incorporation into pyrimidines. The settings on record: 60 min, N=6. The experiment is classed as cell-based, mouse.
From the text: as §1

The next experiment concerns the target T5, Thymidylate synthetase (Mus musculus, UniProt P07607).
T5 construct: preparing the appropriate L1210 cell homogenates or subcellular fractions; endogenous in cells; host or cells: L1210 murine lymphoid leukemia cells, homogenate or subcellular fraction
Kind of experiment: Thymidylate synthetase activity, L1210. Format: biochemical. The note with it: 60 min, N=6.
From the text: as §1

Experiment [3] concerns the target T6, Thymidine monophosphate kinase (Mus musculus, UniProt P97930).
T6 construct: preparing the appropriate L1210 cell homogenates or subcellular fractions; endogenous in cells; host or cells: L1210 murine lymphoid leukemia cells, homogenate or subcellular fraction
T6 sequence (P97930 1-212): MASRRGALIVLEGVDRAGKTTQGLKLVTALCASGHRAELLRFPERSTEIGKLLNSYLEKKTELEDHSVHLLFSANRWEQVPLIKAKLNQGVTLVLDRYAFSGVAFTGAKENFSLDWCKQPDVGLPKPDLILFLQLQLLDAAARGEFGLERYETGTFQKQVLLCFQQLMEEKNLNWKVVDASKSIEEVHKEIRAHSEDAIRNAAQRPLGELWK
The experiment is described as follows: TMP kinase activity, L1210. Format: biochemical. The settings on record: 60 min, N=6.
From the text: as §1

A further experiment deals with L1210 d[NTP] pool levels. Kind of experiment: Deoxyribonucleoside triphosphate pool levels. Format: cell-based, mouse. The note with it: 100 μM, 60 min, N=6.
From the text: as §1

T5 sequence (P07607 whole entry): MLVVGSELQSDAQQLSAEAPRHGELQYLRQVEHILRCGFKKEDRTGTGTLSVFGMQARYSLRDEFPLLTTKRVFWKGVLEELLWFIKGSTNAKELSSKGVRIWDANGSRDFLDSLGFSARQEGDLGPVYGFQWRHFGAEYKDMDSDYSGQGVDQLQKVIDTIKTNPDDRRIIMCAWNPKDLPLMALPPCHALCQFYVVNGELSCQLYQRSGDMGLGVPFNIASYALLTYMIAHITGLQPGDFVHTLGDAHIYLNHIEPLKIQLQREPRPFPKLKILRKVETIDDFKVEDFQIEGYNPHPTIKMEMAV

Take `O=S(=O)(O)c1cc2c(O)c(c1)Cc1cc(S(=O)(=O)O)cc(c1O)Cc1cc(S(=O)(=O)O)cc(c1O)Cc1cc(S(=O)(=O)O)cc(c1O)Cc1cc(S(=O)(=O)O)cc(c1O)Cc1cc(S(=O)(=O)O)cc(c1O)C2` [GI-2029]: at mRNA polymerase, the mRNA polymerase is 50+3% of Control. The rRNA polymerase at rRNA polymerase (25 μM) is listed as 115+6% of Control; on rRNA polymerase (50 μM), 102+4% of Control; on rRNA polymerase (100 μM) it was 107+5% of Control. The Dihydrofolate reductase is 108+5% of Control on Dihydrofolate reductase (50 μM) and 127+6% of Control at Dihydrofolate reductase (100 μM). For the same compound, the “Purine de novo synthesis” value in [1] (25 μM) is 130+6% of Control; in experiment [1] (50 μM), 97+6% of Control. In addition, the PRPP amido transferase on PRPP amido transferase is recorded as 30+3% of Control. Besides, the IMP dehydrogenase is recorded as 270+5% of Control in the experiment with IMP dehydrogenase (25 μM) and 184+6% of Control in the experiment on IMP dehydrogenase (50 μM). Also, the “Pyrimidine de novo synthesis” value in experiment [2] (25 μM) was 99+6% of Control; in experiment [2] (50 μM), 96+ 5% of Control; in experiment [2] (100 μM), 93+7% of Control. In addition, the Thymidylate synthetase on Thymidylate synthetase (25 μM) is given as 92+5% of Control; on Thymidylate synthetase (50 μM) it was 89+6% of Control. The Thymidine monophosphate kinase in [3] (25 μM) is recorded as 118+6% of Control; in experiment [3] (50 μM), 50+5% of Control. Further, the “d(ATP)” value in the experiment with L1210 d[NTP] pool levels is reported as 68+5% of Control. The “d(CTP)” value with L1210 d[NTP] pool levels was 96+ 5% of Control. In addition, the “d(TTP)” value with L1210 d[NTP] pool levels is recorded as 98+5% of Control.
